# US20260191923A1, “COMPOSITIONS” (GIVAUDAN SA, priority 2022, published 2026)
# Tests used:
# Format in all cases: cell-based
# human gut microbiome [1] = assay: Short term colonic simulation (48 hours colonic fermentation): overall fermentative activity, pH and gas production; settings: pre-digested products, fecal inoculum of a single human donor, triplicate; 0-6 hours; doses of Table 1
# From the text: (§1) The test products used in these experiments included a red acerola fruit powder containing 20% vitamin C and a green acerola fruit powder containing 34% vitamin C provided by Naturex-Givaudan. Commercial synthetic ascorbic acid and a 55:45 mixture of fructose and glucose served as relevant control groups. The test products contained a fraction of digestible compounds (sugar, for e.g.) that, in vivo, are absorbed in the small intestine following conversion to small molecules by digestive enzymes. […] Stock solutions of test products and controls were prepared and exposed to conditions simulating oral, gastric, and small intestinal passage. Typically, a dialysis procedure is employed to simulate absorption of small molecules in the small intestine, but this step was omitted for these test products, as the dialysis procedure would lead to losses of compounds in acerola (polyphenols) that would reach the colon in vivo and exert an effect on the microbiome. […] Changes in ammonium production were assessed by sampling at the start of incubation and after 48 hours. Analysis of microbial community structure was performed at the start of the incubation and after 48 hours. pH was measured in each reactor at each time point as a single repetition. Gas production was measured in the headspace of the fermentation vessels as a single repetition.
# human gut microbiome [2] = assay: Short term colonic simulation: microbial metabolite (SCFA) production by capillary gas chromatography-FID; settings: 48 hours colonic fermentation; acerola 3.5 g/L, sugar control 1.75 g/L, ascorbic acid 1.67 g/L; FIG. 1
# From the text: as §1, with “microbiome. A 48 hours colonic fermentation was performed in the presence of test compounds and relevant controls to determine the effect of the test products on the gut microbiome.” for “microbiome.”, “[…] Quantitative analysis” for “Analysis of microbial community structure was performed at the start”, “SCFA” for “incubation and after 48 hours. pH”, “done by means of capillary gas chromatography, coupled with” for “measured in each reactor at each time point as”, “flame ionization detector (FID). […]” for “single repetition. Gas production was measured in the headspace of the fermentation vessels as a single repetition.”
# human gut microbiome [3] = assay: Short term colonic simulation: changes in community composition by 16S-targeted Illumina sequencing (heat map, LEfSe, beta diversity); settings: after 48 hours; ascorbic acid 1.67 g/L; comparator not stated
# From the text: The test products used in these experiments included a red acerola fruit powder containing 20% vitamin C and a green acerola fruit powder containing 34% vitamin C provided by Naturex-Givaudan. Commercial synthetic ascorbic acid and a 55:45 mixture of fructose and glucose served as relevant control groups. The test products contained a fraction of digestible compounds (sugar, for e.g.) that, in vivo, are absorbed in the small intestine following conversion to small molecules by digestive enzymes. […] Stock solutions of test products and controls were prepared and exposed to conditions simulating oral, gastric, and small intestinal passage. […]
# Sampling was performed periodically with a syringe through a rubber septum. […] Changes in ammonium production were assessed by sampling at the start of incubation and after 48 hours. […]
# The methodology applied involves primers that span 2 hypervariable regions (V3-V4) of the 16S rRNA gene, i.e. primers 341F-785R described in Bekliz et al (Bekliz, M., Pramateftaki, P., Battin, T. J. et al. Viral diversity is linked to bacterial community composition in alpine stream biofilms. ISME COMMUN. 2, 27 (2022). https://doi.org/10.1038/s43705-022-00112-9). […] Read assembly and cleanup was largely derived from the MiSeq SOP described by the Schloss lab. […]
compound,measurement,setting,value
"O=C1O[C@H]([C@@H](O)CO)C(O)=C1O [Ascorbic acid, ascorbic acid]",pH shift,human gut microbiome [1],failed to produce a significant shift in pH
same,propionate production,human gut microbiome [2],"Each product, except ascorbic acid, stimulated propionate production"
same,"strongest enrichments (LEfSe), OTUs of the genera/families",human gut microbiome [3],"Bacteroides, Lachnoclostridium, GCA-900066575, Anaerostipes, Agathobacter, Oscillibacter, Alistipes, Lachnospiraceae, Flavonifractor, Coprococcus and Blautia"
